Measured values reported in US20140212407A1, “TREATMENT OF OBESITY” (Isis Innovation Limited, priority 2008, published 2014).

Legend:
[1] = Badiou et al. 2005; cited from earlier work
[2] = Body weight and food intake in rats on MR diet with or without L-cysteine, 3 weeks; format: in vivo, rat; conditions: L-cysteine 5 g/kg added to MR diet, preliminary
Source text: To distinguish the effect of cysteine on body weight from that of methionine, the same experiment described above was repeated with addition of a third group. In addition to the methionine restricted (MR) and control groups, a third group was included comprising rats fed an MR diet supplemented with L-cysteine at a concentration of 5 g/kg diet. Age of the rats at the start of experiment, housing conditions and MR and control diets were similar to those in the above experiment. Food and water were provided ad libitum. Each group consisted of 8 rats; there was no significant difference in body weight between the 3 groups at baseline.

[3] = tested on: gene for CGL; conditions: by inhibition of the ERK/Sp1 signalling pathway; Fiorucci et al 2005; cited from earlier work
[4] = humans, concentration-dependent; Smith et al 2003; cited from earlier work
[5] = target: cystathionine γ-lyase (CGL) (Homo sapiens, UniProt P32929); conditions: Steegborn et al J Biol Chem 1999; cited from earlier work
cystathionine γ-lyase (CGL), sequence (P32929 whole entry): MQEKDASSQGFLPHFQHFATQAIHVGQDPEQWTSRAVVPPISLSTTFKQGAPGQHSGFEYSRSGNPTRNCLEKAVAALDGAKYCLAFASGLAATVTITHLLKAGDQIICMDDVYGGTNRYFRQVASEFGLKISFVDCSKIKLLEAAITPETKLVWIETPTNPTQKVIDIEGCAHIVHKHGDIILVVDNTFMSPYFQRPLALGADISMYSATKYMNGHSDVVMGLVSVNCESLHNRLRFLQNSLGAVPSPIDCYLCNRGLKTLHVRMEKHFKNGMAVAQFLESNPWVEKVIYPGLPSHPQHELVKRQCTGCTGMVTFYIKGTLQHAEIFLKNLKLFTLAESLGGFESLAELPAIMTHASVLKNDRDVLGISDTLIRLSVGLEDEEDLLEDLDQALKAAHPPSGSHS

CC1(C)C[C@@H]1C(=O)N/C(=C\CCCCSC[C@H](N)C(=O)O)C(=O)O [Cilastatin, cilastatin]
plasma cysteine levels [1]: lowers plasma cysteine levels

N[C@@H](CS)C(=O)O [L-cysteine]
effect on weight gain of MR rats [2]: prevented the decrease in weight gain

CC(=O)Oc1ccccc1C(=O)O [aspirin]
expression of the gene for CGL [3]: reduce expression

COc1ccc2c(c1)c(CC(=O)O)c(C)n2C(=O)c1ccc(Cl)cc1 [indomethacin]
expression of the gene for CGL [3]: reduce expression

CC(C(=O)O)c1cccc(C(=O)c2ccccc2)c1 (stereo not shown) [ketoprofen]
expression of the gene for CGL [3]: reduce expression

O=S(=O)(O)CCS [mesna]
plasma level of cysteine [4]: markedly reduces

C#CCC(N)C(=O)O (stereo not shown) [propargylglycine]
inhibition of CGL enzyme activity [5]: potent inhibitors
